In US12624067B2, “Cyclic peptide, cell scaffold material, cell separating material, and medium” (FUJIFILM Corporation, priority 2019, dated 2026):
Numbered stars: 1 amine (or outer) side, 2 acyl side, 3 side chain; on linkers, the order of the positions; unused ones are H or OH. Bridge positions count the residues as written; N and C are the ends. Square brackets hold non-standard residues; d marks the D form. Peptide text beside a SMILES is read from it. Pen = CC(C)(S)[C@H](N)C(=O)O; hCys = N[C@@H](CCS)C(=O)O; Orn = NCCC[C@H](N)C(=O)O; Dab = NCC[C@H](N)C(=O)O; Dap = NC[C@H](N)C(=O)O; X1 = O=C(C[*:1])[*:2]; X2 = O=C(C[*:2])[*:1]

Key:
human integrin αvβ5 = human integrin αvβ5 (Homo sapiens, UniProt P06756+P18084); test: Evaluation of integrin binding property (surface plasmon resonance, Biacore 3000, immobilized cyclic peptide); conditions: peptide immobilized on CM5 sensor chip; human integrin αvβ5 30-1,000 nM, 25° C., HEPES buffer with 5 mM magnesium chloride; read-out: Integrin binding property (dissociation constant)
Chain of human integrin αvβ5 (P06756 31-889 limits assumed): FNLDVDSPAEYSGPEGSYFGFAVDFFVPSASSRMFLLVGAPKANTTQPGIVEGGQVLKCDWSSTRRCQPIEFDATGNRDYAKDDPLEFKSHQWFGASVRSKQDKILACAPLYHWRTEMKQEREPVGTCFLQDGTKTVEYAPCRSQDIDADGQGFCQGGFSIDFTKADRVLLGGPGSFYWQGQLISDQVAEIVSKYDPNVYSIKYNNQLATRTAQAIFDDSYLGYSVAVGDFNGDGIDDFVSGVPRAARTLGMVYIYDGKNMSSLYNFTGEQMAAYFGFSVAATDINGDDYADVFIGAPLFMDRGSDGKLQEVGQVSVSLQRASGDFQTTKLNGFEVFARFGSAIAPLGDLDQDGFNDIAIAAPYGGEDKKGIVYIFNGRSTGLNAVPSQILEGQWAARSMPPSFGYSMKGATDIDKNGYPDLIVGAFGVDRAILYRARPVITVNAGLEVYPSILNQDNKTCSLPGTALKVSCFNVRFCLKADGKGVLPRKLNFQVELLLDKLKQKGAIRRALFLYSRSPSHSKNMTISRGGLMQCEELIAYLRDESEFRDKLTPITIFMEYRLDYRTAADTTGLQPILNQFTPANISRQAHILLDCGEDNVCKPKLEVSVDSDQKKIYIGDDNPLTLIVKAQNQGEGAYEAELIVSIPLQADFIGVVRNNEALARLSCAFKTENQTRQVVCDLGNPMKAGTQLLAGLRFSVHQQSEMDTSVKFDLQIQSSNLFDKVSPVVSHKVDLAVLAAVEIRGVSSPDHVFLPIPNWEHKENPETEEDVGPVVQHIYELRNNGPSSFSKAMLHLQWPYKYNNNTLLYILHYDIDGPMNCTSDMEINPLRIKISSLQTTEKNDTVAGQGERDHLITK
Chain of human integrin αvβ5 (P06756 891-1048 partner limits assumed): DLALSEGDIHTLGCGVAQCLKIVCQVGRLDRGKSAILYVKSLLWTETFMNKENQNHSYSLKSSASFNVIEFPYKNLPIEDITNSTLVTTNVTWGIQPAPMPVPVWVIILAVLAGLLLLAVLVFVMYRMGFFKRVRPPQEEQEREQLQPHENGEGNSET
Chain of human integrin αvβ5 (P18084 24-799): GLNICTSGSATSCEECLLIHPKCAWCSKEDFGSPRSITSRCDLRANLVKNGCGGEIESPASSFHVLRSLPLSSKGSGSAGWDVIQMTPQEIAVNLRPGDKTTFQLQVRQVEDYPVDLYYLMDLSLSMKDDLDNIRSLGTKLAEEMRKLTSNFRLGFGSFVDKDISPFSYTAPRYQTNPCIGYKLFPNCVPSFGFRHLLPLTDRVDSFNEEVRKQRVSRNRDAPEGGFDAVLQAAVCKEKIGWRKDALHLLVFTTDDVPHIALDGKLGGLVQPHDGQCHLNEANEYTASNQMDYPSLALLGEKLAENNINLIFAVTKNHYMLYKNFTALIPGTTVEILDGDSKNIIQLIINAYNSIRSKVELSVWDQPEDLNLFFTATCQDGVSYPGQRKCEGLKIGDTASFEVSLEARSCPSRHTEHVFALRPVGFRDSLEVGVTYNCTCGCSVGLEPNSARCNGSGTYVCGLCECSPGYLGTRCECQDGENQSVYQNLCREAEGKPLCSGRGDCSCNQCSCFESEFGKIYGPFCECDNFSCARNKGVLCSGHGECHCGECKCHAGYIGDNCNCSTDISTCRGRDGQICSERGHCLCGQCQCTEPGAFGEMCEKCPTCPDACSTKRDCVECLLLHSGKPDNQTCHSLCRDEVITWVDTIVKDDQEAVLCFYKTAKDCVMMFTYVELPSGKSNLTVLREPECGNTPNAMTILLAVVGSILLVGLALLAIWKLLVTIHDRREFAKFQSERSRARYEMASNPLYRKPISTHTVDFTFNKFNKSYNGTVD
Protocol: A commercially available CM5 sensor chip (a carboxymethyl dextran introduction type, manufactured by GE Healthcare) was set in a surface plasmon resonance apparatus (product name: Biacore 3000, manufactured by GE Healthcare), the sensor was stabilized at a flow rate of 10 μL/min of a 4-(2-hydroxyethyl)-1-piperazineethanesulfonic acid (HEPES) buffer solution (20 mM HEPES-HCl, 150 mM NaCl, pH 7.4) for surface plasmon resonance (SPR), and 70 μL of a mixed aqueous solution of 0.2 M 1-(3-dimethylaminopropyl)-3-ethylcarbodiimide (EDC) and 0.04 M N-hydroxysuccinimide (NHS) was added thereto. Then, 300 μL of the sample solution of each of the above cyclic peptides diluted to 0.2 g/L with the HEPES buffer solution was supplied to the sensor chip, blocking treatment was subsequently carried out with an ethanolamine solution, and washing was carried out with a sodium hydroxide aqueous solution, whereby immobilization was carried out. However, only for the cyclic peptide 22, in which the number of lysine residues having an amino group as the immobilizing functional group was 1, the sample solution to be supplied to the sensor chip was set to 5,000 μL instead of 300 μL. Similarly; 70 μL of the mixed aqueous solution of 0.2 M EDC and 0.04 M NHS was added to another flow channel of the same sensor chip without immobilizing the sample, and then blocking treatment and washing treatment were carried out. Hereinafter, the obtained immobilization-treated sensor chip is referred to as an “immobilization-treated sensor chip A”.
After adding human integrin αvβ5 for 10 minutes at 25° C., which was diluted to 30 nM using a HEPES buffer solution to which magnesium chloride was added to 5 mM, in each flow channel of the immobilization-treated sensor chip A prepared in (1) above, the same HEPES buffer solution (containing 5 mM magnesium chloride) was allowed to flow as a running buffer for 30 minutes, and measurement was carried out with Biacore 3000.
Then, a regeneration treatment of removing human integrin αvβ5 was carried out by allowing a 0.5 M EDTA aqueous solution to flow through each flow channel for 10 minutes. Further, the above-described measurement process consisting of adding integrin for 10 minutes, allowing a running buffer to flow for 30 minutes, carrying out measurement with Biacore 3000, and carrying out regeneration treatment with 0.5 M EDTA aqueous solution was carried out in the same manner for 100 nM human integrin αvβ5, 300 nM human integrin αvβ5, and 1,000 nM human integrin αvβ5. Dissociation constant between the cyclic peptide and human integrin αvβ5 was calculated from the difference between the value measured by Biacore 3000 in the flow channel immobilized with the cyclic peptide and the value measured by Biacore 3000 in the flow channel unimmobilized with the cyclic peptide, in a case where each concentration of human integrin αvβ5 was allowed to flow; and the integrin binding property was evaluated according to the following evaluation standards. It is preferable that the evaluation result satisfies the evaluation standard A, B, or C.

[1] = Evaluation of molecule stability (alkali treatment, LC/MS residual rate); type: physicochemical; conditions: 500 μM peptide plus equivalent of 1 M sodium hydroxide, 15° C., 20 minutes, LC/MS peak area
Protocol: The molecule stability of the cyclic peptide was evaluated by analyzing the alkali-treated cyclic peptide aqueous solution by liquid chromatography mass spectroscopy (LC/MS).
The alkali treatment was carried out by the following method. A 500 μM cyclic peptide aqueous solution was prepared, an equivalent of 1 M sodium hydroxide aqueous solution was added to this aqueous solution, and the resultant mixture was incubated at 15° C. for 20 minutes to obtain an alkali-treated cyclic peptide aqueous solution. The cyclic peptide residual rate was calculated by setting the total area of all peaks of the cyclic peptide before alkali treatment in LC/MS to 100% and determining the proportion of the total area of all peaks in LC/MS of the alkali-treated cyclic peptide aqueous solution, and the molecule stability was evaluated according to the following evaluation standards. It is preferable that the evaluation result satisfies the evaluation standard A, B, or C.
The conditions of the LC/MS used for the evaluation of molecule stability were set as follows. • LC apparatus: Prominence series (pump, column oven, autosampler, detector) (manufactured by Shimadzu Corporation) • MS detector: LC/MS2010EV (manufactured by Shimadzu Corporation) • Column: Cadenza CD-C18, inner diameter 2.0 mm×length 250 mm, particle size: 3 μm (manufactured by Imtakt Corporation) • Eluent A: a solution (pH 3) containing 10 mM ammonium formate as a solute, where the solvent is 100% water. • Eluent B: a solution (pH 3) containing 10 mM ammonium formate as a solute, where the solvent is acetonitrile/water=90/10. • Flow rate: 0.2 mL/min • Injection volume: 4 μL • Gradient: 0% to 30%: Eluent B (0 to 30 minutes), 100%: Eluent B (30 to 40 minutes), 0%: Eluent B (40 to 60 minutes)(B indicates the eluent B) • Column temperature: 45° C. • Ionization method: electrospray ionization (ESI) positive, ESI negative

Compound | Kd (human integrin αvβ5) [µM] | Molecule stability (cyclic peptide residual rate) [1]
CC[C@H](C)[C@@H]1NC(=O)CSCC[C@@H](C(=O)N[C@@H](CCCCN)C(=O)N[C@@H](CCCCN)C(=O)N[C@@H](CCCCN)C(=O)O)NC(=O)[C@H](Cc2ccccc2)NC(=O)[C@@H]2CCCCNC(=O)CSCC[C@H](NC1=O)C(=O)N[C@@H](CCCNC(=N)N)C(=O)NCC(=O)N[C@@H](CC(=O)O)C(=O)N2 [Cyclic peptide 11] ({CH2CO}-I[hCys]RGDKF[hCys]KKK-OH; linker 2-6 via X1; thioether N-8) | < 0.05 | A (The residual rate of the cyclic peptide is 70% or more.)
CC[C@H](C)[C@@H]1NC(=O)CSC[C@@H](C(=O)N[C@@H](CCCCN)C(=O)N[C@@H](CCCCN)C(=O)N[C@@H](CCCCN)C(=O)O)NC(=O)[C@H](Cc2ccccc2)NC(=O)[C@@H]2CCCCNC(=O)CSC[C@H](NC1=O)C(=O)N[C@@H](CCCNC(=N)N)C(=O)NCC(=O)N[C@@H](CC(=O)O)C(=O)N2 [Cyclic peptide 12] ({CH2CO}-ICRGDKFCKKK-OH; linker 2-6 via X1; thioether N-8) | < 0.05 | B (The residual rate of the cyclic peptide is 50% or more and less than 70%.)
CC[C@H](C)[C@@H]1NC(=O)CSC[C@@H](C(=O)N[C@@H](CCCCN)C(=O)N[C@@H](CCCCN)C(=O)N[C@@H](CCCCN)C(=O)O)NC(=O)[C@H](Cc2ccccc2)NC(=O)[C@@H]2CCSCC(=O)NC[C@H](NC1=O)C(=O)N[C@@H](CCCNC(=N)N)C(=O)NCC(=O)N[C@@H](CC(=O)O)C(=O)N2 [Cyclic peptide 13] ({CH2CO}-I[Dap]RGD[hCys]FCKKK-OH; linker 2-6 via X2; thioether N-8) | 0.05 to 0.1 | A (The residual rate of the cyclic peptide is 70% or more.)
CC[C@H](C)[C@@H]1NC(=O)CSCC[C@@H](C(=O)N[C@@H](CCCCN)C(=O)N[C@@H](CCCCN)C(=O)N[C@@H](CCCCN)C(=O)O)NC(=O)[C@H](Cc2ccccc2)NC(=O)[C@@H]2CSCC(=O)NC[C@H](NC1=O)C(=O)N[C@@H](CCCNC(=N)N)C(=O)NCC(=O)N[C@@H](CC(=O)O)C(=O)N2 [Cyclic peptide 14] ({CH2CO}-I[Dap]RGDCF[hCys]KKK-OH; linker 2-6 via X2; thioether N-8) | < 0.05 | A (The residual rate of the cyclic peptide is 70% or more.)
CC[C@H](C)[C@@H]1NC(=O)CSC[C@@H](C(=O)N[C@@H](CCCCN)C(=O)N[C@@H](CCCCN)C(=O)N[C@@H](CCCCN)C(=O)O)NC(=O)[C@H](Cc2ccccc2)NC(=O)[C@@H]2CCSCC(=O)NCCC[C@H](NC1=O)C(=O)N[C@@H](CCCNC(=N)N)C(=O)NCC(=O)N[C@@H](CC(=O)O)C(=O)N2 [Cyclic peptide 15] ({CH2CO}-I[Orn]RGD[hCys]FCKKK-OH; linker 2-6 via X2; thioether N-8) | < 0.05 | A (The residual rate of the cyclic peptide is 70% or more.)
CC[C@H](C)[C@@H]1NC(=O)CSCC[C@@H](C(=O)N[C@@H](CCCCN)C(=O)N[C@@H](CCCCN)C(=O)N[C@@H](CCCCN)C(=O)O)NC(=O)[C@H](Cc2ccccc2)NC(=O)[C@@H]2CSCC(=O)NCCC[C@H](NC1=O)C(=O)N[C@@H](CCCNC(=N)N)C(=O)NCC(=O)N[C@@H](CC(=O)O)C(=O)N2 [Cyclic peptide 16] ({CH2CO}-I[Orn]RGDCF[hCys]KKK-OH; linker 2-6 via X2; thioether N-8) | < 0.05 | A (The residual rate of the cyclic peptide is 70% or more.)
CC[C@H](C)[C@@H]1NC(=O)CSC[C@@H](C(=O)N[C@@H](CCCCN)C(=O)N[C@@H](CCCCN)C(=O)N[C@@H](CCCCN)C(=O)O)NC(=O)[C@H](Cc2ccccc2)NC(=O)[C@@H]2CCCCNC(=O)CSCC[C@H](NC1=O)C(=O)N[C@@H](CCCNC(=N)N)C(=O)NCC(=O)N[C@@H](CC(=O)O)C(=O)N2 [Cyclic peptide 17] ({CH2CO}-I[hCys]RGDKFCKKK-OH; linker 2-6 via X1; thioether N-8) | < 0.05 | A (The residual rate of the cyclic peptide is 70% or more.)
CC[C@H](C)[C@@H]1NC(=O)CSCC[C@@H](C(=O)N[C@@H](CCCCN)C(=O)N[C@@H](CCCCN)C(=O)N[C@@H](CCCCN)C(=O)O)NC(=O)[C@H](Cc2ccccc2)NC(=O)[C@@H]2CCCCNC(=O)CSC[C@H](NC1=O)C(=O)N[C@@H](CCCNC(=N)N)C(=O)NCC(=O)N[C@@H](CC(=O)O)C(=O)N2 [Cyclic peptide 18] ({CH2CO}-ICRGDKF[hCys]KKK-OH; linker 2-6 via X1; thioether N-8) | < 0.05 | A (The residual rate of the cyclic peptide is 70% or more.)
CC[C@H](C)[C@@H]1NC(=O)CSC[C@@H](C(=O)N[C@@H](CCCCN)C(=O)N[C@@H](CCCCN)C(=O)N[C@@H](CCCCN)C(=O)O)NC(=O)[C@H](Cc2ccccc2)NC(=O)[C@@H]2CCNC(=O)CSCC[C@H](NC1=O)C(=O)N[C@@H](CCCNC(=N)N)C(=O)NCC(=O)N[C@@H](CC(=O)O)C(=O)N2 [Cyclic peptide 19] ({CH2CO}-I[hCys]RGD[Dab]FCKKK-OH; linker 2-6 via X1; thioether N-8) | 0.05 to 0.1 | A (The residual rate of the cyclic peptide is 70% or more.)
CC[C@H](C)[C@@H]1NC(=O)CSCC[C@@H](C(=O)N[C@@H](CCCCN)C(=O)N[C@@H](CCCCN)C(=O)N[C@@H](CCCCN)C(=O)O)NC(=O)[C@H](Cc2ccccc2)NC(=O)[C@@H]2CCNC(=O)CSC[C@H](NC1=O)C(=O)N[C@@H](CCCNC(=N)N)C(=O)NCC(=O)N[C@@H](CC(=O)O)C(=O)N2 [Cyclic peptide 20] ({CH2CO}-ICRGD[Dab]F[hCys]KKK-OH; linker 2-6 via X1; thioether N-8) | < 0.05 | A (The residual rate of the cyclic peptide is 70% or more.)
CC[C@H](C)[C@@H]1NC(=O)CSCC[C@@H](C(=O)N[C@@H](CCCCN)C(=O)O)NC(=O)[C@H](Cc2ccccc2)NC(=O)[C@@H]2CCCCNC(=O)CSCC[C@H](NC1=O)C(=O)N[C@@H](CCCNC(=N)N)C(=O)NCC(=O)N[C@@H](CC(=O)O)C(=O)N2 [Cyclic peptide 22] ({CH2CO}-I[hCys]RGDKF[hCys]K-OH; linker 2-6 via X1; thioether N-8) | < 0.05 | A (The residual rate of the cyclic peptide is 70% or more.)
CC[C@H](C)[C@@H]1NC(=O)CSC(C)(C)[C@@H](C(=O)N[C@@H](CCCCN)C(=O)N[C@@H](CCCCN)C(=O)N[C@@H](CCCCN)C(=O)O)NC(=O)[C@H](Cc2ccccc2)NC(=O)[C@@H]2CCSCC(=O)NCCC[C@H](NC1=O)C(=O)N[C@@H](CCCNC(=N)N)C(=O)NCC(=O)N[C@@H](CC(=O)O)C(=O)N2 [Cyclic peptide 23] ({CH2CO}-I[Orn]RGD[hCys]F[Pen]KKK-OH; linker 2-6 via X2; thioether N-8) | < 0.05 | A (The residual rate of the cyclic peptide is 70% or more.)
